Where two headings read alike, the source gives them in different places.
Tests used:
[1] = target: human DGKα (Homo sapiens (Human), UniProt P23743); assay: biochemical; settings: detergent/lipid micelle substrate; read-out: DGKα IC50
Protocol: (§1) The DGKα and DGKζ reactions were performed using either extruded liposome (DGKα and DGKζ LIPGLO assays) or detergent/lipid micelle substrate (DGKα and DGKζ assays). The reactions were carried out in 50 mM MOPS pH 7.5, 100 mM NaCl, 10 mM MgCl2, 1 μM CaCl2, and 1 mM DTT (assay buffer). The reactions using a detergent/lipid micelle substrate also contained 50 mM octyl B-D-glucopyranoside. […] The lipid substrate concentrations were […], 0.25 mM DAG, and 2.75 mM PC for the extruded liposome reactions.
(§2) The compound inhibition studies were carried out as follows: 50 nL droplets of each test compound (top concentration 10 mM with 11 point, 3-fold dilution series for each compound) solubilized in DMSO were transferred to wells of a white 1536 well plate (Corning 3725). A 5 mL enzyme/substrate solution at 2× final reaction concentration was prepared by combining 2.5 mL 4× enzyme solution (20 nM DGKα or DGKζ (prepared as described below) in assay buffer) and 2.5 mL of either 4× liposome or 4× detergent/lipid micelle solution (compositions described below) and incubated at room temperature for 10 minutes. Next, 1 μL 2× enzyme/substrate solution was added to wells containing the test compound and reactions were initiated with the addition of 1 μL 300 uM ATP. The reactions were allowed to proceed for 1 hr, after which 2 μL Glo Reagent (Promega V9101) was added and incubated for 40 minutes. Next, 4 μL Kinase Detection Reagent was added and incubated for 30 minutes. Luminescence was recorded using an EnVision microplate reader. […] The compounds were evaluated at 11 concentrations to determine IC50.
(§3) The detergent/lipid micelle was prepared by combining 15 g phosphatidylserine (Avanti 840035P) and 1 g diacylglycerol (800811O) and dissolving into 150 mL chloroform in a 2 L round bottom flask. Chloroform was removed under high vacuum by rotary evaporation. The resulting colorless, tacky oil was resuspended in 400 mL 50 mM MOPS pH 7.5, 100 mM NaCl, 20 mM NaF, 10 mM MgCl2, 1 μM CaCl2), 1 mM DTT, and 200 mM octyl glucoside by vigorous mixing. The lipid/detergent solution was split into 5 mL aliquots and stored at −80° C.
(§4) Human DGK-alpha-TVMV-His-pFBgate and human DCK-zeta-transcript variant-2-TVMV-His-pFBgate baculovirus samples were generated using the Bac-to-Bac baculovirus expression system (Invitrogen) according to the manufacturer's protocol. The DNA used for expression of DGK-alpha and DGK-zeta have SEQ ID NOs: 1 and 3, respectively. Baculovirus amplification was achieved using infected Sf9 cells at 1:1500 virus/cell ratios, and grown for 65 hours at 27° C. post-transfection.
(§5) The expression scale up for each protein was carried out in the Cellbag 50 L WAVE-Bioreactor System 20/50 from GE Healthcare Bioscience. 12 L of 2×10^6 cells/mL Sf9 cells (Expression System, Davis, Calif.) grown in ESF921 insect medium (Expression System) were infected with virus stock at 1:200 virus/cell ratios, and grown for 66-68 hours at 27° C. post-infection. The infected cell culture was harvested by centrifugation at 2000 rpm for 20 min 4° C. in a SORVALL® RC12BP centrifuge. The cell pellets were stored at −70° C. until purification.
(§6) Full length human DGKα and DGKζ, each expressed containing a TVMV-cleavable C-terminal Hexa-His tag sequence (SEQ ID NOs: 2 and 4, respectively) and produced as described above, were purified from Sf) baculovirus-infected insect cell paste. The cells were lysed using nitrogen cavitation method with a nitrogen bomb (Parr Instruments), and the lysates were clarified by centrifugation. […] The three steps column chromatography included nickel affinity resin capture (i.e. HisTrap FF crude, GE Healthcare), followed by size exclusion chromatography (i.e. HiLoad 26/600 Superdex 200 prep grade, GE Healthcare for DGK-alpha, and HiPrep 26/600 Sephacryl S 300_HR, GE Healthcare for DGK-zeta).

[2] = target: human DGKζ (Homo sapiens (Human), UniProt Q13574); assay: DGKζ assay (detergent/lipid micelle substrate); type: biochemical
Protocol: as §1, §2, §3, §4, §5, §6

[3] = test system: pre-activated CD4 T cells and Raji cells; assay: Raji CD4 T Cell IL2 Assay; type: cell-based
[4] = detergent/lipid micelle substrate, read-out: DGKζ IC50

Sequence of human DGKζ (Q13574 other isoform, or with tags, fused parts or gaps): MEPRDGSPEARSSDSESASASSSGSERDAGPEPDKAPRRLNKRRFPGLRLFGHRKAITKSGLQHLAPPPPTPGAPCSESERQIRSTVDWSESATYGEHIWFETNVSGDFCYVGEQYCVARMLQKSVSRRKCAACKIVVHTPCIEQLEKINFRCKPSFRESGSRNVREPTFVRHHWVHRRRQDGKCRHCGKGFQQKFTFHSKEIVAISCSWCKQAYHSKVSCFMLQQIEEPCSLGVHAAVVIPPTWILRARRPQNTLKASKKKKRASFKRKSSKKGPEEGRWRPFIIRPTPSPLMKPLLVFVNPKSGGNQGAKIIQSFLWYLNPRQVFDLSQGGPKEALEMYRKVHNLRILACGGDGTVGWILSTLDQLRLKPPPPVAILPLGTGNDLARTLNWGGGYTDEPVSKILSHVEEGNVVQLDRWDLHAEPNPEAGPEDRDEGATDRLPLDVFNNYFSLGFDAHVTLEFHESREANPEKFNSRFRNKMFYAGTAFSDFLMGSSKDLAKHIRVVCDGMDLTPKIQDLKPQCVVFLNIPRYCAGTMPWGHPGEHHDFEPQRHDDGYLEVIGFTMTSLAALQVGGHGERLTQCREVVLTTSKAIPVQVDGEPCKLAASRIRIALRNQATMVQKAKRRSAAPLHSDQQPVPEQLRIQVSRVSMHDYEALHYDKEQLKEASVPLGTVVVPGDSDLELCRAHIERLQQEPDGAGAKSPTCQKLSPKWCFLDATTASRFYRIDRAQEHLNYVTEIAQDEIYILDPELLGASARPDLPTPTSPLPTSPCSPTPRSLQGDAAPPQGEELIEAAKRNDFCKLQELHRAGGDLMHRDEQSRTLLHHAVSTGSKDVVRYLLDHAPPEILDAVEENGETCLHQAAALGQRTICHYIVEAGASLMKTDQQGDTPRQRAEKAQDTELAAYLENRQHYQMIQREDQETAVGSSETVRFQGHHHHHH
Sequence of human DGKα (P23743 other isoform, or with tags, fused parts or gaps): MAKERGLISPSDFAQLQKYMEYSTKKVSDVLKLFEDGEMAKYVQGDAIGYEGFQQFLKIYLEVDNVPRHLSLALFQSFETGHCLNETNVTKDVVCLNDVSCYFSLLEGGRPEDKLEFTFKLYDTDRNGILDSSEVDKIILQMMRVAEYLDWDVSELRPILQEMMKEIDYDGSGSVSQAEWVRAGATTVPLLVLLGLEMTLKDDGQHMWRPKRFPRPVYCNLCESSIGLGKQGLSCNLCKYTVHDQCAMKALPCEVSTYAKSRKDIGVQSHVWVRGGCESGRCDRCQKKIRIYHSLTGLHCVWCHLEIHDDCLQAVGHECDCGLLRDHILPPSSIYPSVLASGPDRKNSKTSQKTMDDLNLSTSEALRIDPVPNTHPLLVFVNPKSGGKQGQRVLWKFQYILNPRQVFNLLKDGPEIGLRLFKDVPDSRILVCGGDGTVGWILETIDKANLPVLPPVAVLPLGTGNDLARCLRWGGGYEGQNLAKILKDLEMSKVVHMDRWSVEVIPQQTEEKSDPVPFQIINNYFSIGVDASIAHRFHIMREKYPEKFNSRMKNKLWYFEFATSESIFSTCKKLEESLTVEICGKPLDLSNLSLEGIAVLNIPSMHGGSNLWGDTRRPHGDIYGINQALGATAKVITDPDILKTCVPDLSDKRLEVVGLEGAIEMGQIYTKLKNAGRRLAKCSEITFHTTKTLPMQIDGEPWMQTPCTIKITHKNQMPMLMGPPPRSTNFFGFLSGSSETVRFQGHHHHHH

Row | Structure (SMILES) | IC50 [1] [nM] | IC50 [2, 4] [nM] | IC50 ([3]; Homo sapiens, Raji) [nM] | IC50 ([2]; DGKζ IC50, detergent/lipid micelle substrate) [nM] | IC50 [3] [nM]
1 | Cn1c(=O)c(C#N)c(N2CCN(Cc3ccccc3NC(=O)OC(C)(C)C)CC2)c2nc(Br)ccc21 [Example 284, tert-butyl N-(2-{[4-(6-bromo-3-cyano-1-methyl-2-oxo-1,2-dihydro-1,5-naphthyridin-4-yl)piperazin-1-yl]methyl}phenyl)carbamate] | 1000 | > 240000 | 98 |  | 
2 | Cn1c(=O)c(C#N)c(N2CCN(Cc3ccccc3O)CC2)c2nc(Br)ccc21 [Example 2, 6-Bromo-4-(4-(2-hydroxybenzyl)piperazin-1-yl)-1-methyl-2-oxo-1,2-dihydro-1,5-naphthyridine-3-carbonitrile] | 49 | > 240000 | 200 |  | 
3 | Cn1c(=O)c([N+](=O)[O-])c(N2CCN(C(c3ccc(F)cc3)c3cccc(F)c3O)CC2)c2nc(Br)ccc21 (single isomer, unassigned) [Example 76, 6-bromo-4-(4-((3-fluoro-2-hydroxyphenyl)(4-fluorophenyl)methyl)piperazin-1-yl)-1-methyl-3-nitro-1,5-naphthyridin-2(1H)-one] | 5500 |  |  | 2500 | 67
4 | C=CCOc1cc(F)cc2c1C(N1CCN(c3c(C#N)c(=O)n(C)c4ccc(Cl)nc34)CC1)CC2 (stereo not drawn) [Example 200, 4-(4-(7-(allyloxy)-5-fluoro-2,3-dihydro-1H-inden-1-yl)piperazin-1-yl)-6-chloro-1-methyl-2-oxo-1,2-dihydro-1,5-naphthyridine-3-carbonitrile] | 24000 | > 240000 | 1600 |  | 
5 | Cc1cc(F)cc(CN2CCN(c3c(C#N)c(=O)n(C)c4ccc(Cl)nc34)CC2)c1 [Example 290, 6-chloro-4-{4-[(3-fluoro-5-methylphenyl)methyl]piperazin-1-yl}-1-methyl-2-oxo-1,2-dihydro-1,5-naphthyridine-3-carbonitrile] | 2200 | > 240000 | 110 |  | 
6 | Cc1ccc2c(n1)c(N1CCN(Cc3cc(Cl)ccc3O)CC1)c(C#N)c(=O)n2C [Example 296, 4-{4-[(5-chloro-2-hydroxyphenyl)methyl]piperazin-1-yl}-1,6-dimethyl-2-oxo-1,2-dihydro-1,5-naphthyridine-3-carbonitrile] | 980 | 150000 | 150 |  | 
7 | COCCn1c(=O)c(C#N)c(N2CCN(C(c3ccc(F)cc3)c3ccc(F)cc3OC)CC2)c2nc(Br)ccc21 (single isomer, unassigned) [Example 115, 6-bromo-4-(4-((4-fluoro-2-methoxyphenyl)(4-fluorophenyl)methyl)piperazin-1-yl)-1-(2-methoxyethyl)-2-oxo-1,2-dihydro-1,5-naphthyridine-3-carbonitrile] | 220000 | > 240000 |  |  | 3800
8 | Cn1c(=O)c(C#N)c(N2CCN(C(c3ccc(F)cc3)c3ccccc3O)CC2)c2nc(Br)ccc21 (single isomer, unassigned) [Example 9, 6-bromo-4-{4-[(4-fluorophenyl)(2-hydroxyphenyl)methyl]piperazin-1-yl}-1-methyl-2-oxo-1,2-dihydro-1,5-naphthyridine-3-carbonitrile] |  |  |  |  | > 100000
9 | Cc1ccc2c(n1)c(N1CCN(C(c3ccc(F)cc3)c3ccc(F)cc3)CC1)c(F)c(=O)n2C [Example 234, 4-(4-(bis(4-fluorophenyl)methyl)piperazin-1-yl)-3-fluoro-1,6-dimethyl-1,5-naphthyridin-2(1H)-one] | 16000 |  | 130 |  | 
10 | Cn1c(=O)c(C#N)c(N2CCN(C(c3ccc(F)cc3)c3ccccc3O)CC2)c2nc(Br)ccc21 (single isomer, unassigned) [Example 10, 6-bromo-4-{4-[(4-fluorophenyl)(2-hydroxyphenyl)methyl]piperazin-1-yl}-1-methyl-2-oxo-1,2-dihydro-1,5-naphthyridine-3-carbonitrile] |  |  |  |  | 3
11 | COc1cc(F)ccc1C(c1ccc(F)cc1)N1CCN(c2c([N+](=O)[O-])c(=O)n(C)c3ccc(C#N)nc23)CC1 (racemic) [Example 123, 8-(4-((4-fluoro-2-methoxyphenyl)(4-fluorophenyl)methyl)piperazin-1-yl)-5-methyl-7-nitro-6-oxo-5,6-dihydro-1,5-naphthyridine-2-carbonitrile] | 2300 |  |  |  | 
12 | Cn1c(=O)c(C#N)c(N2CCN(C(c3ccc(F)cc3)c3ccc(F)cc3O)CC2)c2nc(Cl)ccc21 (stereo not drawn) [Example 222, 6-chloro-4-(4-((4-fluoro-2-hydroxyphenyl)(4-fluorophenyl)methyl)piperazin-1-yl)-1-methyl-2-oxo-1,2-dihydro-1,5-naphthyridine-3-carbonitrile] | 83 |  | 68 |  | 
13 | C#CCn1c(=O)c([N+](=O)[O-])c(N2CCN(C(c3ccc(F)cc3)c3ccc(F)cc3OC)CC2)c2nc(C#N)ccc21 (racemic) [Example 126, 8-(4-((4-fluoro-2-methoxyphenyl)(4-fluorophenyl)methyl)piperazin-1-yl)-7-nitro-6-oxo-5-(prop-2-yn-1-yl)-5,6-dihydro-1,5-naphthyridine-2-carbonitrile] | 6100 | 330 |  |  | 
14 | C#CCn1c(=O)c(C#N)c(N2CCN(C(c3ccc(F)cc3)c3ccccc3O)CC2)c2nc(Br)ccc21 (racemic) [Example 105, 6-bromo-4-(4-((4-fluorophenyl)(2-hydroxyphenyl)methyl)piperazin-1-yl)-2-oxo-1-(prop-2-yn-1-yl)-1,2-dihydro-1,5-naphthyridine-3-carbonitrile] | 580 | 2500 |  |  | 
15 | COc1ccc(CN2CCN(c3c(C#N)c(=O)n(C)c4ccc(Cl)nc34)CC2)c(O)c1 [Example 301, 6-chloro-4-{4-[(2-hydroxy-4-methoxyphenyl)methyl]piperazin-1-yl}-1-methyl-2-oxo-1,2-dihydro-1,5-naphthyridine-3-carbonitrile] |  | > 240000 |  |  | 
16 | C#CCn1c(=O)c([N+](=O)[O-])c(N2CCN(C(c3ccc(F)cc3)c3ccc(F)cc3O)CC2)c2nc(C#N)ccc21 (racemic) [Example 119, 8-(4-((4-fluoro-2-hydroxyphenyl)(4-fluorophenyl)methyl)piperazin-1-yl)-7-nitro-6-oxo-5-(prop-2-yn-1-yl)-5,6-dihydro-1,5-naphthyridine-2-carbonitrile] | 970 | 190 |  |  | 
17 | Cn1c(=O)c(C#N)c(N2CCN(Cc3cccc(Br)c3O)CC2)c2nc(Br)ccc21 [Example 380, 6-bromo-4-{4-[(3-bromo-2-hydroxyphenyl)methyl]piperazin-1-yl}-1-methyl-2-oxo-1,2-dihydro-1,5-naphthyridine-3-carbonitrile] | 830 | > 240000 |  |  | 
18 | Cn1c(=O)c(C#N)c(N2CCN(C(c3ccc(F)cc3)c3ccccc3O)CC2)c2nc(Br)ccc21 (racemic) [Example 8, 6-bromo-4-{4-[(4-fluorophenyl)(2-hydroxyphenyl)methyl]piperazin-1-yl}-1-methyl-2-oxo-1,2-dihydro-1,5-naphthyridine-3-carbonitrile] |  |  | 91 |  | 
19 | Cn1c(=O)c(C#N)c(N2CCN(C3CCc4cc(F)cc(O)c43)CC2)c2nc(Cl)ccc21 (stereo not drawn) [Example 201, 6-chloro-4-(4-(5-fluoro-7-hydroxy-2,3-dihydro-1H-inden-1-yl)piperazin-1-yl)-1-methyl-2-oxo-1,2-dihydro-1,5-naphthyridine-3-carbonitrile] |  |  | 22000 |  | 
